Laboratory results taken from ChEMBL document CHEMBL1201862, “PubChem BioAssay data set” (2004).
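Values below derive from 48-hour exposures of cells grown in 96-well plates, with endpoints linearly interpolated between the two concentrations bracketing the appropriate inhibition level. GI50 marks 50% less growth.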 The source made the active and inactive calls. No stated cut-off is given here; in the data, active = GI50 up to about 1.1 µM and inactive = higher.

What was measured:
Assay in all cases: NCI anticancer screen, dose series, 48 h
SK-OV-3 = tested on: SK-OV-3
MCF7 = tested on: MCF7
KM12 = tested on: KM12
786-0 = tested on: 786-0
LOX IMVI = tested on: LOX IMVI
NCI-H23 = tested on: NCI-H23
HCT-116 = tested on: HCT-116
SR = tested on: SR
MDA-MB-231 = tested on: MDA-MB-231
UACC-62 = tested on: UACC-62
OVCAR-5 = tested on: OVCAR-5
HCT-15 = tested on: HCT-15
BT-549 = tested on: BT-549
IGROV-1 = tested on: IGROV-1
OVCAR-3 = tested on: OVCAR-3
SN12C = tested on: SN12C
CAKI-1 = tested on: CAKI-1
EKVX = tested on: EKVX
UACC-257 = tested on: UACC-257
NCI-H522 = tested on: NCI-H522

SMILES	GI50 (SK-OV-3)	GI50 (MCF7)	GI50 (KM12)	GI50 (786-0)	GI50 (LOX IMVI)	GI50 (NCI-H23)	GI50 (HCT-116)	GI50 (SR)	GI50 (MDA-MB-231)	GI50 (UACC-62)	GI50 (OVCAR-5)	GI50 (HCT-15) [µM]	GI50 (BT-549)	GI50 (IGROV-1)	GI50 (OVCAR-3)	GI50 (SN12C)	GI50 (CAKI-1)	GI50 (EKVX)	GI50 (UACC-257)	GI50 (NCI-H522)
CCCCNC(=O)OCCN=c1c2ccccc2ccc2ccccc12	> 100 µM (inactive)	> 100 µM (inactive)	> 100 µM (inactive)	> 100 µM (inactive)	> 100 µM (inactive)	> 100 µM (inactive)	> 100 µM (inactive)	> 100 µM (inactive)	> 100 µM (inactive)	> 100 µM (inactive)	> 100 µM (inactive)	> 100	> 100 µM (inactive)	> 100 µM (inactive)	> 100 µM (inactive)	> 100 µM (inactive)	> 100 µM (inactive)	> 100 µM (inactive)	> 100 µM (inactive)	–
COC(=O)c1nn2ccc3ccccc3c2c1C(=O)OC	> 100 µM (inactive)	> 100 µM (inactive)	58.7 µM (inactive)	75.2 µM (inactive)	83.6 µM (inactive)	> 100 µM (inactive)	65.9 µM (inactive)	41.1 µM (inactive)	53 µM (inactive)	36.6 µM (inactive)	> 100 µM (inactive)	54.3	63.5 µM (inactive)	88.9 µM (inactive)	–	58.1 µM (inactive)	48.9 µM (inactive)	2.37 µM (inactive)	60.7 µM (inactive)	> 100 µM (inactive)
COC(=O)CCC1=C(CC(=O)OC)C(C)(OC)N/C1=N/C(=O)OCc1ccccc1 (stereo not given)	> 100 µM (inactive)	> 100 µM (inactive)	> 100 µM (inactive)	> 100 µM (inactive)	> 100 µM (inactive)	> 100 µM (inactive)	> 100 µM (inactive)	> 100 µM (inactive)	> 100 µM (inactive)	> 100 µM (inactive)	> 100 µM (inactive)	> 100	> 100 µM (inactive)	> 100 µM (inactive)	–	> 100 µM (inactive)	> 100 µM (inactive)	> 100 µM (inactive)	> 100 µM (inactive)	> 100 µM (inactive)
CCOC(=O)c1nc2cc(C(F)(F)F)ccc2nc1Oc1ccc(C(=O)OC)cc1	–	> 100 µM (inactive)	> 100 µM (inactive)	> 100 µM (inactive)	83.8 µM (inactive)	–	> 100 µM (inactive)	> 100 µM (inactive)	> 100 µM (inactive)	> 100 µM (inactive)	> 100 µM (inactive)	51.5	> 100 µM (inactive)	> 100 µM (inactive)	> 100 µM (inactive)	> 100 µM (inactive)	> 100 µM (inactive)	> 100 µM (inactive)	> 100 µM (inactive)	69.2 µM (inactive)
Cc1cc(=O)oc2c(CN3CCCCC3)c(O)ccc12	–	> 100 µM (inactive)	–	> 100 µM (inactive)	> 100 µM (inactive)	> 100 µM (inactive)	> 100 µM (inactive)	> 100 µM (inactive)	> 100 µM (inactive)	> 100 µM (inactive)	> 100 µM (inactive)	> 100	> 100 µM (inactive)	> 100 µM (inactive)	> 100 µM (inactive)	> 100 µM (inactive)	> 100 µM (inactive)	> 100 µM (inactive)	> 100 µM (inactive)	> 100 µM (inactive)
O=C(O)[C@@H]1C[C@@H](O)CN1	> 100 µM (inactive)	> 100 µM (inactive)	> 100 µM (inactive)	> 100 µM (inactive)	> 100 µM (inactive)	> 100 µM (inactive)	> 100 µM (inactive)	> 100 µM (inactive)	> 100 µM (inactive)	> 100 µM (inactive)	> 100 µM (inactive)	> 100	> 100 µM (inactive)	> 100 µM (inactive)	> 100 µM (inactive)	> 100 µM (inactive)	> 100 µM (inactive)	> 100 µM (inactive)	> 100 µM (inactive)	–
Cc1cccc(-n2c(C)nc3ccc(NC(=S)Nc4ccccc4)cc3c2=O)c1	–	67 µM (inactive)	57.3 µM (inactive)	> 100 µM (inactive)	37.2 µM (inactive)	64.9 µM (inactive)	46.5 µM (inactive)	> 100 µM (inactive)	70.1 µM (inactive)	50.1 µM (inactive)	> 100 µM (inactive)	68.5	48.5 µM (inactive)	> 100 µM (inactive)	32.4 µM (inactive)	> 100 µM (inactive)	> 100 µM (inactive)	55.7 µM (inactive)	47.6 µM (inactive)	51.2 µM (inactive)
C=CC[C@]12C=C(OC)[C@@H](O)[C@](OC)(C(c3cc(OC)c4c(c3)OCO4)[C@H]1C)[C@H]2OC(C)=O (stereo not given in full)	61.1 µM (inactive)	> 100 µM (inactive)	> 100 µM (inactive)	> 100 µM (inactive)	–	> 100 µM (inactive)	> 100 µM (inactive)	> 100 µM (inactive)	> 100 µM (inactive)	> 100 µM (inactive)	> 100 µM (inactive)	> 100	> 100 µM (inactive)	> 100 µM (inactive)	> 100 µM (inactive)	> 100 µM (inactive)	> 100 µM (inactive)	> 100 µM (inactive)	> 100 µM (inactive)	> 100 µM (inactive)
O=C(CSc1nnc(-c2ccccn2)s1)N/N=C/c1ccccc1	> 100 µM (inactive)	> 100 µM (inactive)	> 100 µM (inactive)	76.9 µM (inactive)	> 100 µM (inactive)	> 100 µM (inactive)	> 100 µM (inactive)	> 100 µM (inactive)	> 100 µM (inactive)	> 100 µM (inactive)	> 100 µM (inactive)	> 100	> 100 µM (inactive)	> 100 µM (inactive)	> 100 µM (inactive)	> 100 µM (inactive)	> 100 µM (inactive)	–	> 100 µM (inactive)	> 100 µM (inactive)
Cc1cn(C2CCC(/C=N\O)O2)c(=O)[nH]c1=O (stereo not given)	–	> 100 µM (inactive)	> 100 µM (inactive)	> 100 µM (inactive)	> 100 µM (inactive)	> 100 µM (inactive)	> 100 µM (inactive)	> 100 µM (inactive)	> 100 µM (inactive)	> 100 µM (inactive)	> 100 µM (inactive)	> 100	> 100 µM (inactive)	> 100 µM (inactive)	> 100 µM (inactive)	> 100 µM (inactive)	> 100 µM (inactive)	> 100 µM (inactive)	> 100 µM (inactive)	–
Cc1csc(CP(=O)(OC(C)C)OC(C)C)n1	> 100 µM (inactive)	> 100 µM (inactive)	–	> 100 µM (inactive)	> 100 µM (inactive)	> 100 µM (inactive)	> 100 µM (inactive)	> 100 µM (inactive)	> 100 µM (inactive)	–	> 100 µM (inactive)	> 100	> 100 µM (inactive)	> 100 µM (inactive)	> 100 µM (inactive)	> 100 µM (inactive)	> 100 µM (inactive)	> 100 µM (inactive)	> 100 µM (inactive)	> 100 µM (inactive)
CC(=O)[C@@H](C)C(=O)N1C(=O)OC[C@@]12[C@@H]1CC[C@@H](C1)C2(C)C	> 100 µM (inactive)	> 100 µM (inactive)	> 100 µM (inactive)	> 100 µM (inactive)	> 100 µM (inactive)	> 100 µM (inactive)	> 100 µM (inactive)	78.7 µM (inactive)	> 100 µM (inactive)	> 100 µM (inactive)	> 100 µM (inactive)	> 100	> 100 µM (inactive)	> 100 µM (inactive)	–	> 100 µM (inactive)	71.8 µM (inactive)	> 100 µM (inactive)	> 100 µM (inactive)	> 100 µM (inactive)
Cc1cccc2c1Oc1cc(Cl)ccc1C2NC(=O)CCN1CCN(CCO)CC1 (stereo not given)	25.9 µM (inactive)	15.2 µM (inactive)	3.55 µM (inactive)	13.6 µM (inactive)	2.75 µM (inactive)	23.1 µM (inactive)	18.6 µM (inactive)	21.8 µM (inactive)	3.69 µM (inactive)	5.66 µM (inactive)	21.1 µM (inactive)	18.4	15.1 µM (inactive)	22.1 µM (inactive)	17.7 µM (inactive)	15 µM (inactive)	–	20.8 µM (inactive)	16.6 µM (inactive)	11.1 µM (inactive)
CCCCc1ccc(Nc2nc(S)c3[nH]cnc3n2)cc1	> 10 µM (inactive)	> 10 µM (inactive)	11.4 µM (inactive)	33.2 µM (inactive)	17.5 µM (inactive)	18.7 µM (inactive)	25.5 µM (inactive)	–	28.9 µM (inactive)	18.5 µM (inactive)	17.2 µM (inactive)	37.5	17.4 µM (inactive)	18.7 µM (inactive)	16.1 µM (inactive)	22.8 µM (inactive)	34.5 µM (inactive)	> 10 µM (inactive)	21.6 µM (inactive)	10.9 µM (inactive)
C=CC(C)(C)n1cc(C2=C3OC(=O)C(c4cn(C(C)(C)C=C)c5ccccc45)=C3OC2=O)c2ccccc21	–	> 100 µM (inactive)	> 100 µM (inactive)	> 100 µM (inactive)	> 100 µM (inactive)	> 100 µM (inactive)	> 100 µM (inactive)	> 100 µM (inactive)	> 100 µM (inactive)	–	> 100 µM (inactive)	> 100	> 100 µM (inactive)	> 100 µM (inactive)	> 100 µM (inactive)	> 100 µM (inactive)	> 100 µM (inactive)	> 100 µM (inactive)	> 100 µM (inactive)	> 100 µM (inactive)
